Measurements reported in patent US20110312961A1, “2,5-Disubstituted Morpholine Orexin REceptor Antagonists” (priority 2008, published 2011).

Columns and labels:
[1] = molecular target: T1, human recombinant α4β2 nicotinic receptors (Homo sapiens, UniProt P17787+P43681); experiment: [3H]-nicotine radioligand binding, SH-EP1/human α4β2 membranes; settings: read-out: inhibition of [3H]-nicotine binding to human recombinant α4β2 nicotinic receptors
T1 construct: expressed in transfected cells; host or cells: SH-EP1 clonal cells
T1 sequence (P43681 29-627 limits assumed): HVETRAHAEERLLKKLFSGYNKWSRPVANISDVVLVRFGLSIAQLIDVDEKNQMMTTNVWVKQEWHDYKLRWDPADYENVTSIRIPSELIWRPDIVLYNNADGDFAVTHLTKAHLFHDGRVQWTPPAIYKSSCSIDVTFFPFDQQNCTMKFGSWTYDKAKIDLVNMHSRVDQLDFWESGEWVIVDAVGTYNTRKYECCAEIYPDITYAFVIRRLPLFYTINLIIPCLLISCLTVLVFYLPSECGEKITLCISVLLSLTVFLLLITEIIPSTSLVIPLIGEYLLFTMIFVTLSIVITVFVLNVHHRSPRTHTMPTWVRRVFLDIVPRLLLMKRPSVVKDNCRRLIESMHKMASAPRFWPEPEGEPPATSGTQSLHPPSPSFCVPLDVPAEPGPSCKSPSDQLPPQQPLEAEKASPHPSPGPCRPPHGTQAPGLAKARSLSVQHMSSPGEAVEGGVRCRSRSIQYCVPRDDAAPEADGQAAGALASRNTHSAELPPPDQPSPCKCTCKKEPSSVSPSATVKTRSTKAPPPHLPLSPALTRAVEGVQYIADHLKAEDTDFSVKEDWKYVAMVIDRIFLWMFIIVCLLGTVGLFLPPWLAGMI
T1 sequence (P17787 26-502): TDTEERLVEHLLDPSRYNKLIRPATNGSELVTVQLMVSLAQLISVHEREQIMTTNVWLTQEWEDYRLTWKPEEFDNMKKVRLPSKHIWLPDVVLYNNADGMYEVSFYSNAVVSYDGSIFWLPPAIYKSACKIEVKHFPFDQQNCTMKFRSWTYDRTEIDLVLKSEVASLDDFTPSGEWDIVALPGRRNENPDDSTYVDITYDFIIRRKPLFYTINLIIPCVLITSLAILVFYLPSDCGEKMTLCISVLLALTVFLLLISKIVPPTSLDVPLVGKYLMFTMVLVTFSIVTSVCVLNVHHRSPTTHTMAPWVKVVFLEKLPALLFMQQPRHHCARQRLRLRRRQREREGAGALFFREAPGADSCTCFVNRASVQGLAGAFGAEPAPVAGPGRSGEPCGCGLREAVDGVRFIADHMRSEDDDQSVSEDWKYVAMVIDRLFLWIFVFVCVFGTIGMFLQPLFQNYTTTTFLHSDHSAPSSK
Experimental: Preparation of membranes from SH-EP1/human α4β2 clonal cells: Cell pellets from 40 150 mm culture dishes were pooled, and homogenized by Polytron (Kinematica GmbH, Switzerland) in 20 milliliters of ice-cold preparative buffer. The homogenate was centrifuged at 48,000 g for 20 minutes at 4° C. The resulting pellet was re-suspended in 20 mL of ice-cold preparative buffer and stored at −20° C.
On the day of the assay, the frozen membranes were thawed and spun at 48,000×g for 20 min. The supernatant was decanted and discarded. The pellet was resuspended in Dulbecco's phosphate buffered saline (PBS, Life Technologies) pH 7.4 and homogenized with the Polytron for 6 seconds. Protein concentrations were determined using a Pierce BCA Protein Assay Kit, with bovine serum albumin as the standard (Pierce Chemical Company, Rockford, Ill.).
Membrane preparations (approximately 50 μg for human and 200-300 μg protein for rat α4β2) were incubated in PBS (50 μL and 100 μL respectively) in the presence of competitor compound (0.01 nM to 100 μM) and 5 nM [^3H]nicotine for 2-3 hours on ice. […] Filters were then counted to determine radioactivity bound to the membranes by liquid scintillation counting (2200CA Tri-Carb LSC, Packard Instruments, 50% efficiency or Wallac Trilux 1450 MicroBeta, 40% efficiency, Perkin Elmer).
Data were expressed as disintegrations per minute (DPMs). […]

CD-1 mice = experiment: Formalin test; type: in vivo, mouse
Experimental: One of the most clinically predictive screening models of acute pain is the formalin test in mice (LeBars et al., 2001). In this paradigm, originally described by Dubuisson and Dennis (1977), a diluted solution of formalin is injected into the plantar surface of a subject's (rat or mouse) rear paw and nociceptive behavior is measured; for instance, licking and biting of the injected paw. Two phases of the response are observed. First an early phase, starting immediately after injection and lasting 5-10 minutes, followed by a late phase that can last from 15-60 minutes after injection. Nociceptive response is attributed to direct chemical stimulation in the early phase and inflammation/persistent pain in the later phase (Dubuisson and Dennis, 1977). The response in the late phase also depends on changes in processing of information in the spinal cord due to the afferent barrage during the early phase (Coderre et al., 1990). An advantage of the test is that two different types of stimuli are employed in the same assay to study the possibility of varying analgesic effects of a drug in the two phases of the test (Tjølsen and Hole, 1997).
Subjects (adult male CD-1 mice (Charles River, Raleigh, N.C.) weighing approximately 20-25 grams) were removed from their home cage and weighed, then placed in a clear Plexiglas™ observation box for an acclimation period of 20-30 minutes. Mice were then removed from the observation chambers and (2S,3R)—N-2-((3-pyridinyl)methyl)-1-azabicyclo[2.2.2]oct-3-yl)-3,5-difluorobenzamide (as the hydrochloride salt in 0.9% saline) (1, 3 or 10 mg/kg s.c. (calculated with respect to the free base)), morphine (5 mg/kg; s.c.) or 0.9% saline vehicle was administered subcutaneously in a volume of 1 mL/kg. Mice were then returned to the chamber for the predetermined pretreatment time of 30 minutes for (2S,3R)—N-2-((3-pyridinyl)methyl)-1-azabicyclo[2.2.2]oct-3-yl)-3,5-difluorobenzamide and morphine.
After the test compound pretreatment time, the animals were injected with formalin solution (2.5% derived as a 1:4 dilution of 10% phosphate buffered formalin solution (Sigma):distilled water). The subject's assigned paw was gasped gently and formalin solution was injected into the paw intra-dermally in the middle on the dorsal side. Once injected, the subject was immediately returned to its observation chamber and a timer was started to mark the beginning of Phase I. Each subject was videotaped for the entire 40-minute session. […] The time spent licking during that 1 min interval was recorded, and the presence or absence of paw favoring was noted.
For data analyses, phase I of the test was defined as 0 to 5 minutes after formalin injection, and phase II was defined as 20 to 40 minutes after formalin injection. The time spent licking during the 1 minute intervals during those time frames was recorded and graphed as mean±S.E.M. For comparisons across treatment groups, 1-way analyses of variance (ANOVAs) were performed for each phase of the session with treatment as the […] variable. Post-hoc analyses were performed when appropriate to determine specific group differences.

O=C(N[C@@H]1C2CCN(CC2)[C@H]1Cc1cccnc1)c1cc(F)cc(F)c1 [Compound A]
Ki [1]: 1.47 µM | reduction of time spent licking the paw, phase II (CD-1 mice; 10 mg/kg s.c., 20 to 40 minutes after formalin, P<0.05): significant in reducing the time spent licking the paw | reduction of time spent licking, phase I (CD-1 mice; 1, 3 or 10 mg/kg s.c., hydrochloride salt, 0 to 5 minutes after formalin): no statistically significant dose | reduction of time spent licking the affected paw, phase I or phase II (CD-1 mice; subsequent analysis of the videotapes, scored across the entire time period): failed to achieve statistical significance
